For data set [1] the following is noted: Afatinib 40 mg/day alone; terminal (stage III to IV) NSCLC patients; 229 patients, phase III; cited from earlier work.
Data set [2] is described as follows: Phase II clinical trial of concurrent low-dose Ubenimex and low-dose Afatinib: adverse effects. Particulars: within the combination (FIG. 2). It is filed as in vivo, human patients. On the procedure: To patients with non-small cell lung cancer having a mutation in the epidermal growth factor receptor (EGFR) gene, 10 mg/day of Ubenimex in a single dose unit (free form) and 20 mg/day of Afatinib (Giotrif®, dimaleate) in a single dose unit were administered in concurrently once a day until no antitumor effects would be exerted. The therapeutic effects and reduction of adverse effects were then inspected. […]

Entries after “also recorded” stand apart in the source; their conditions may differ.

Take `CN(C)CC=CC(=O)Nc1cc2c(Nc3ccc(F)c(Cl)c3)ncnc2cc1O[C@H]1CCOC1` [Afatinib, N-[4-[(3-chloro-4-fluorophenyl)amino]-7-[[(3S)-tetrahydro-3-furanyl]oxy]-6-quinazolinyl]-4-(dimethylamino)-2-butenamide]: the “adverse effects, such as diarrhea and rashes” value in data set [1] is given as “likely to appear; also recorded: likely to be caused”. Moreover, the “adverse effects of Afatinib at about 20 mg/day, such as diarrhea or rashes” value in data set [2] (about 20 mg/day in a single dose unit) is given as “substantially no adverse effects”.
`CC(C)C[C@H](NC(=O)[C@@H](O)[C@H](N)Cc1ccccc1)C(=O)O` [Ubenimex, (2S)-2-[(2S,3R)-3-amino-2-hydroxy-4-phenylbutanoylamino]-4-methylpentanoic acid]: the “adverse effects of Ubenimex at about 10 mg/day” value in data set [2] (about 10 mg/day in a single dose unit) is “substantially no adverse effects”.

The values above are taken from patent publication US20240238293A1, “COMBINED PHARMACEUTICAL PREPARATION FOR TREATING A TERMINAL NON-SMALL CELL LUNG CANCER PATIENT WITH BRAIN METASTASIS” (DELTA-FLY PHARMA, INC., priority 2020, published 2024).
